From patent US8367659B2, “Oxazinyl isoflavonoid compounds, medicaments and use” (Marshall Edwards, Inc., priority 2007, dated 2013)
pIC50: −log10 of the molar value. Read-outs that look alike come from different tables or passages of the source.

Key:
[1] = test system: TXB2 synthesis in RAW 264.7 murine macrophages; assay: LPS-induced TXB2 synthesis in RAW 264.7 murine macrophages; assay type: cell-based, mouse; conditions: 10 μM; relative to vehicle alone; FIG. 4
Experimental: (§1) The mouse macrophage cell line RAW 264.7 was cultured in DMEM supplemented with foetal calf serum (FCS), […] glutamine and 50 U/ml penicillin/streptomycin. Cells were treated with either test compound (in 0.025% DMSO) or vehicle alone, and added one hour before 50 ng/ml LPS. After incubation for 24 h, culture media was collected for PGE2 or TXB2 measurement by ELISA (Cayman Chemical), and TNFα measurement using an ELISA (Becton Dickinson). Test compounds were examined a concentration of 10 μM. […] Consequently, to assess the effect of test compounds on various analytes, cell viability was taken into consideration with the use of the formula: Actual effect of test compound=measured effect−(effect on cell viability×measured effect)

[2] = test system: B cells; assay: B cell proliferation (LPS-stimulated mouse splenocytes, MTT); assay type: cell-based, Skh-1:HR 1 (hairless) mice; conditions: 10 μM, 3 days
Experimental: (§2) Male Skh-1:HR 1 (hairless) mice, approximately six weeks old were killed by cervical dislocation. Single cell suspensions were made from the spleen and erythrocytes were lysed in buffer (0.14 M NH4Cl, 17 mM Tris, pH 7.2). The remaining splenocytes were cultured in RPMI-1640 (Gibco) supplemented with 10% (v:v) FBS, 200 mM L-glutamine, penicillin/streptomycin and […] 2-mercaptoethanol. Splenocytes were added to quadruplicate wells containing either concanavalin A (ConA, Sigma-Aldrich—0.4 μg/well), LPS (Sigma-Aldrich—1 μg/well) or no mitogen, as well 10 μM of test compound in DMSO. Samples were analysed after 3 days incubation at 37° C. in 5% CO2 in air. Methylthiazoletetrazolium (MTT) is bioreduced by viable cells into a coloured formazan product that is soluble in DMSO. Thus the quantity of formazan product is directly proportional to the number of living cells in culture, and can be measured using a spectrophotometer at 570 nm. MTT was added to each well, incubated for a further 4 hrs and then colour developed with 0.04 N HCl in isopropanol. Culture supernatants were stored after collection at −80° C. and analysed by ELISA (BD Biosciences) for IFN-γ (a Th-1 cytokine) and for T cells alone, IL-6 (a Th-2 cytokine).

[3] = target: T1, GAL4-PPARγ fusion protein (Homo sapiens, UniProt P37231); assay: PPARγ activity in transfected HEK293 cells (beta-lactamase reporter); assay type: cell-based; conditions: FIG. 13: 1 μM
T1 construct: host or cells: HEK293 (human embryonic kidney), stably transfected
Outline: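 HEK293 cells stably expressing GAL4-DBD/PPARγ-LBD fusion with beta-lactamase reporter, treated with compound at 1, 5 and 10 μM for 16-18 h. Beta-lactamase read via FRET substrate (2 h, room temperature), ex 409 nm, em 460/530 nm; background-subtracted emission ratio.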

[4] = test system: PGE2 synthesis in RAW 264.7 murine macrophages; assay: LPS-induced PGE2 synthesis in RAW 264.7 murine macrophages; assay type: cell-based, mouse; conditions: 10 μM; relative to vehicle alone; FIG. 3
Experimental: as §1

[5] = test system: IFN-γ; assay: IFN-γ synthesis by mouse splenocytes (ELISA); assay type: cell-based, Skh-1:HR 1 (hairless) mice; conditions: 10 μM; 3 days
Experimental: as §2

[6] = test system: IL-6; assay: IL-6 synthesis by mouse splenocytes (ELISA); assay type: cell-based, Skh-1:HR 1 (hairless) mice; conditions: 10 μM; 3 days
Experimental: as §2

[7] = test system: Rabbit kidney (RK-13) cells; assay: Toxicity to normal cells, rabbit kidney (RK-13) cells; assay type: cell-based; conditions: Oryctolagus cuniculus
Experimental: IC50 values were determined for each cell line. Cells were seeded in 96-well plates at an appropriate cell density as determined from growth kinetics analysis and cultured for 5 days in the absence and presence of the test compounds. Cell proliferation was assessed after the addition of 20 μl of 3-4,5 dimethylthiazol-2,5-diphenyl tetrazolium bromide (MTT, 2.5 mg/ml in PBS, Sigma) for 3-4 hrs at 37° C. according to manufacturer's instructions. IC50 values were calculated from semi-log plots of % of control proliferation on the y-axis against log dose on the x-axis.
The neonatal foreskin fibroblasts (NFF) were a gift from Dr. Peter Parsons (Queensland Institute of Medical Research). Rabbit kidney (RK-13) cells were obtained from Miller Whalley (Macquarie University). Both cell lines were cultured in RPMI supplemented with 10% FCS(CSL, Australia), penicillin (100 U/ml), streptomycin ([…]), L-glutamine (2 mM) and sodium bicarbonate (1.2 g/L), and cultured at 37° C. in a humidified atmosphere of 5% CO2. IC50 values were determined as described above.

[8] = test system: T cells; assay: T cell proliferation (ConA-stimulated mouse splenocytes, MTT); assay type: cell-based, Skh-1:HR 1 (hairless) mice; conditions: 10 μM, 3 days
Experimental: as §2

[9] = test system: TNFα synthesis in human peripheral blood monocytes; assay: Synthesis of TNFα by human monocytes stimulated with LPS; assay type: cell-based; conditions: FIGS. 1a, 1b
Experimental: Human peripheral blood monocytes were isolated from buffy coats by lyrnpboprep gradient separation of mononuclear cells followed by counter-current centrifugal elutriation (Demasi et al. 2000). Test compounds were dissolved in DMSO and added to fresh monocytes to achieve concentrations of 0, 10 and 100 μM. After 30 min, LPS was added to achieve a final concentration of 200 ng/mL. After 1 h, supernatants were removed and TNFα measured by ELISA previously described (Demasi et al. 2003). ANOVA followed by Newman-Keuls multiple comparisons test was used to examine differences between doses and the control values.

[10] = test system: caspase-3/7 activity in A7r5 rat aortic smooth muscle cells; assay: Caspase-3/7 activity (apoptosis) in A7r5 rat aortic smooth muscle cells; assay type: cell-based; conditions: 10, 50 and 100 μM; FIG. 14
From the text: Activation of the caspase cascade is an integral event in the apoptotic pathway. Caspase-3 is one of the important “executioner” caspase enzymes, triggering the cleavage of numerous proteins that lead to the ordered breakdown of cells. The detection of caspase-3 activation is frequently used as a positive marker for apoptosis. A homogeneous luminescent caspase-3/7 assay, the Caspase-Glo™ 3/7 Assay (Promega Corp.) was used to provide an extremely sensitive measure of caspase activation. VSMC were incubated with different concentrations (0 [vehicle alone], 10, 50 and 100 μM) of test compounds. The assay used a proluminescent substrate containing the DEVD sequence recognized by caspase-3 and -7. The caspase-Glo™ 3/7 Reagent produced luminescence that is directly proportional to the amount of caspase-3/7 activity. The luminescence is linear over four orders of magnitude of caspase concentration and over a broad range of cell densities.

T1 sequence (P37231 238-503 limits assumed): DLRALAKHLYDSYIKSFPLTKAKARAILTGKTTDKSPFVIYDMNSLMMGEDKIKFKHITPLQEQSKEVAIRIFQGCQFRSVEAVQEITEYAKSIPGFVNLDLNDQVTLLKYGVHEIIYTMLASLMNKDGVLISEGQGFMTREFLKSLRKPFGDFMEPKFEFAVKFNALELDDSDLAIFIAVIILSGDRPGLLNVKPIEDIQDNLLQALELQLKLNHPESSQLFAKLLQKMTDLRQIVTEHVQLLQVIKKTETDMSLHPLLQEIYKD
T1 sequence (P04386 1-147 partner limits assumed): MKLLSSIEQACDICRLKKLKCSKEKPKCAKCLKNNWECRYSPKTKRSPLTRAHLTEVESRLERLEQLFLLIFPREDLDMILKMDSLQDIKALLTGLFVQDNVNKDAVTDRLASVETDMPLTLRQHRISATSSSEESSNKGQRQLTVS

| PPARγ activation, increase in beta-lactamase activity over media only control [3] | Structure (SMILES) | mean change of LPS-induced TXB2 synthesis [1] | effect on B cells [2] | mean change of LPS-induced PGE2 synthesis [4] | synthesis of INF-γ into the supernatant [5] | synthesis of IL-6 into the supernatant [6] | IC50 ([7]; normal, non-transformed cells, read-out: IC50 μM, RK Rabbit Kidney) [µM] | pIC50 ([7]; read-out: toxicity to RK-13 cells (IC50)) | effect on T cells [8] | effect on synthesis of TNFα [9] | induction of caspase-3/7 activity, apoptosis [10] |
| --- | --- | --- | --- | --- | --- | --- | --- | --- | --- | --- | --- |
| PPARγ agonist activity | CC(c1ccccc1)N1COc2cc3c(cc2C1)C=C(c1ccc(O)cc1)CO3 (centres unmarked) [Compound 2, 4-(3-(1-Phenylethyl)-2,3,4,8-tetrahydrochromeno[6,7-e][1,3]oxazin-7-yl)phenol] | greatest inhibition | markedly and significantly immunosuppressive | greatest inhibition | concomitant reduction | concomitant reduction | 53.3 | < 4.52 | markedly and significantly immunosuppressive | reduce the synthesis of TNFα |  |
|  | Oc1cccc(C2=Cc3ccc(O)cc3OC2)c1 [Compound 37-DHE, 3′,7-dihydroxy-isoflav-3-ene, reference compound] |  |  |  |  |  |  |  |  |  | no activity |
